Source: patent US20250017889A1, “INHIBITORS OF P1B-TYPE ATPASES” (THE CURATORS OF THE UNIVERSITY OF MISSOURI, priority 2021, published 2025)

How the values were obtained:
LOX activity = LOX activity secreted into conditioned media of cancer cells; format: cell-based; details: 5 μM, 4 days
human ATP7A (hATP7A) = biological target: T1, human ATP7A (hATP7A) (Homo sapiens, UniProt Q04656); assay: Tyrosinase activation in B16 ATP7A^KO cells transfected with human ATP7A; format: cell-based; details: 10 μM, 24 h, ATP7A^KO melanoma cells
T1 construct: expressed in transfected cells; host or cells: B16 melanoma ATP7A^KO cells (mouse), transient transfection
T1 sequence (Q04656 1-1500): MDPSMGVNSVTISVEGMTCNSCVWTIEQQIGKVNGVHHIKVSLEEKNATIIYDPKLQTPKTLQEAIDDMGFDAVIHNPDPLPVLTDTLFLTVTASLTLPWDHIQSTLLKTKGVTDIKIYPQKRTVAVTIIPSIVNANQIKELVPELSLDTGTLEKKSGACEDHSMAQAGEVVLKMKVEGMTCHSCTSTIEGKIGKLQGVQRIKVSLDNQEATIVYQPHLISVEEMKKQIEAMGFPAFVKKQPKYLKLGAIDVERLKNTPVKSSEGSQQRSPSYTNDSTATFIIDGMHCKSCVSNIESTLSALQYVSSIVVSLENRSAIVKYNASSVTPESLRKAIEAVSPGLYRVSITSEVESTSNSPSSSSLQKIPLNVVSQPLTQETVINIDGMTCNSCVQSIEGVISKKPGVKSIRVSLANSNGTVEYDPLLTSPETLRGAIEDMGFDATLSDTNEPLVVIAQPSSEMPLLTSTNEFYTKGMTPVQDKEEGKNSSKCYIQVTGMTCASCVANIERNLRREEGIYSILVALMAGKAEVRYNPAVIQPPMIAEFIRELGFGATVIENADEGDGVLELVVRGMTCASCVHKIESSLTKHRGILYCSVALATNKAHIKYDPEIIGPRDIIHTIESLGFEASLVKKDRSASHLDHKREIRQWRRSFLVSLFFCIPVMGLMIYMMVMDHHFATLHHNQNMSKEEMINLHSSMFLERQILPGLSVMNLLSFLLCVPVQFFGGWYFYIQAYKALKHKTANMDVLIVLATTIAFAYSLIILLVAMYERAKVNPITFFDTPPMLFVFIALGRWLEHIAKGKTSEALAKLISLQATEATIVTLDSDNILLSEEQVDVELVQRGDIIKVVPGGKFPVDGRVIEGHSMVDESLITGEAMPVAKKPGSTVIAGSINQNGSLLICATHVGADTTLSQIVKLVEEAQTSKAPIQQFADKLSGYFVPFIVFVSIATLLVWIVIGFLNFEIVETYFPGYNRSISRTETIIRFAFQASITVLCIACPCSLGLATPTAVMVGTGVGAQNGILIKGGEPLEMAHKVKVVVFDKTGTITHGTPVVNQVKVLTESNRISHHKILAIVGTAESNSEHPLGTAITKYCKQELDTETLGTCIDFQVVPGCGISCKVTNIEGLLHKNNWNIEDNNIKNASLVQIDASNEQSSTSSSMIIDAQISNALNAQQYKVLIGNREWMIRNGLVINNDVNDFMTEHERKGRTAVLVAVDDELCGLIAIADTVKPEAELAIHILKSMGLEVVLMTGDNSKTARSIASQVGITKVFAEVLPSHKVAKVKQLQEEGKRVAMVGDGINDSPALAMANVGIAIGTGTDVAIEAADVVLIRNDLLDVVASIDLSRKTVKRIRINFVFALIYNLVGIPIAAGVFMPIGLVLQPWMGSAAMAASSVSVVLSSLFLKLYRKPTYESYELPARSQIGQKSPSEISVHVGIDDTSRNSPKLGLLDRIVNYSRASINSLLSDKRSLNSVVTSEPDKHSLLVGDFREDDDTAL
Text: Prior studies have shown that exogenously expressed ATP7B can activate tyrosinase in cells lacking ATP7A. For these studies, a B16 melanoma cell model was used in which tyrosinase activity can be detected by in situ oxidation of L-DOPA to DOPAchrome (10A). As shown earlier, B16 cells deleted for the ATP7A gene (ATP7A^KO) completely lack tyrosinase activity (10B). […] Quantification of tyrosinase activity in these cells is shown (10G). Data represent mean±SEM; ****p<0.0001 of three independent replicates.

N#CC(C(=O)Nc1cccc(C(F)(F)F)c1)C(=S)Nc1ccccc1Cl (stereo not drawn) [MKV3]
LOX activity in conditioned media (LOX activity; 4T1 breast cancer cells): reduction in LOX activity
LOX activity in conditioned media (LOX activity; LLC lung cancer cells): reduction in LOX activity
activation of tyrosinase activity by ATP7A (human ATP7A (hATP7A)): prevented activation of tyrosinase activity
